# Reference: ChEMBL document CHEMBL1201862, “PubChem BioAssay data set” (2004)
#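 Method: 48-hour compound exposure of cells in 96-well plates, five concentrations, linear interpolation of endpoints. Abbreviation: GI50, concentration required for 50% inhibition of growth.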 Active and inactive are the calls of the source. No stated cut-off is given here; in the data, active = GI50 up to about 1.1 µM and inactive = higher.
# Legend:
# Test in all cases: NCI anticancer screen, dose series, 48 h
# [1] = test system: HT-29
# [2] = test system: UO-31
# [3] = test system: MDA-MB-435
# [4] = test system: NCI-H522
# [5] = test system: HCC 2998
# [6] = test system: OVCAR-3
# [7] = test system: T47D
# [8] = test system: SF-295
# [9] = test system: M14
# [10] = test system: DU-145
# [11] = test system: NCI-H460
# [12] = test system: SK-MEL-2
# [13] = test system: UACC-257
# [14] = test system: OVCAR-4
# [15] = test system: SK-MEL-5
# [16] = test system: SK-MEL-28
# [17] = test system: IGROV-1
# [18] = test system: UACC-62
# [19] = test system: SF-268
# [20] = test system: ACHN
SMILES,GI50 [1],GI50 [2],GI50 [3],GI50 [4],GI50 [5],GI50 [6],GI50 [7],GI50 [8],GI50 [9],GI50 [10],GI50 [11],GI50 [12],GI50 [13],GI50 [14],GI50 [15],GI50 [16],GI50 [17],GI50 [18],GI50 [19],GI50 [20]
CCCc1nnc2sc(COc3ccc(OCc4nn5c(CCC)nnc5s4)c(Cl)c3)nn12,29.4 µM (inactive),14.6 µM (inactive),20.5 µM (inactive),21.1 µM (inactive),23.8 µM (inactive),26 µM (inactive),2.78 µM (inactive),20.8 µM (inactive),21.9 µM (inactive),24.8 µM (inactive),23.3 µM (inactive),42.1 µM (inactive),20.3 µM (inactive),14.7 µM (inactive),7.35 µM (inactive),26.1 µM (inactive),24.9 µM (inactive),13.7 µM (inactive),23 µM (inactive),20.9 µM (inactive)
Cc1ccc(C)n1-n1c(Cc2ccccc2)n[nH]c1=O,> 100 µM (inactive),> 100 µM (inactive),> 100 µM (inactive),49.2 µM (inactive),> 100 µM (inactive),> 100 µM (inactive),> 100 µM (inactive),> 100 µM (inactive),> 100 µM (inactive),> 100 µM (inactive),> 100 µM (inactive),> 100 µM (inactive),46 µM (inactive),> 100 µM (inactive),> 100 µM (inactive),> 100 µM (inactive),> 100 µM (inactive),> 100 µM (inactive),> 100 µM (inactive),> 100 µM (inactive)
CCCNc1[nH]c(C(C)=O)c(N)c1C(=S)Nc1ccccc1,20 µM (inactive),0.782 µM (active),21 µM (inactive),4.15 µM (inactive),> 100 µM (inactive),42.4 µM (inactive),47.1 µM (inactive),43.3 µM (inactive),19.4 µM (inactive),54.7 µM (inactive),33.9 µM (inactive),9.2 µM (inactive),30.1 µM (inactive),23.1 µM (inactive),22.7 µM (inactive),24.7 µM (inactive),0.507 µM (active),17.9 µM (inactive),23.3 µM (inactive),40.8 µM (inactive)
CC(=O)O[C@H]1CCc2c(cc(N)c3c2C(=O)C[C@]2(C)C([C@H](C)CCCC(C)C)CCC32C)C1(C)C (stereo not given in full),42.2 µM (inactive),> 100 µM (inactive),86.7 µM (inactive),> 100 µM (inactive),> 100 µM (inactive),> 100 µM (inactive),> 100 µM (inactive),> 100 µM (inactive),> 100 µM (inactive),> 100 µM (inactive),> 100 µM (inactive),> 100 µM (inactive),85.7 µM (inactive),92.7 µM (inactive),> 100 µM (inactive),> 100 µM (inactive),> 100 µM (inactive),> 100 µM (inactive),> 100 µM (inactive),> 100 µM (inactive)
O=C1N=C(c2ccccc2)O/C1=C\c1ccccc1,> 100 µM (inactive),> 100 µM (inactive),> 100 µM (inactive),> 100 µM (inactive),> 100 µM (inactive),> 100 µM (inactive),> 100 µM (inactive),> 100 µM (inactive),> 100 µM (inactive),> 100 µM (inactive),> 100 µM (inactive),> 100 µM (inactive),> 100 µM (inactive),> 100 µM (inactive),> 100 µM (inactive),> 100 µM (inactive),> 100 µM (inactive),> 100 µM (inactive),> 100 µM (inactive),> 100 µM (inactive)
c1ccc2c(c1)CCN2CCN1CCc2ccccc21,> 10 µM (inactive),> 10 µM (inactive),> 10 µM (inactive),> 10 µM (inactive),> 10 µM (inactive),> 10 µM (inactive),> 10 µM (inactive),> 10 µM (inactive),> 10 µM (inactive),> 10 µM (inactive),> 10 µM (inactive),> 10 µM (inactive),> 10 µM (inactive),> 10 µM (inactive),> 10 µM (inactive),> 10 µM (inactive),> 10 µM (inactive),> 10 µM (inactive),> 10 µM (inactive),> 10 µM (inactive)
NC(Cc1n[nH]c2ccccc12)C(=O)O (stereo not given),> 100 µM (inactive),> 100 µM (inactive),> 100 µM (inactive),> 100 µM (inactive),> 100 µM (inactive),> 100 µM (inactive),> 100 µM (inactive),> 100 µM (inactive),> 100 µM (inactive),> 100 µM (inactive),> 100 µM (inactive),0.104 µM (active),> 100 µM (inactive),> 100 µM (inactive),> 100 µM (inactive),> 100 µM (inactive),> 100 µM (inactive),> 100 µM (inactive),> 100 µM (inactive),> 100 µM (inactive)
COc1cc(OC(=O)c2ccccc2)cc2c1C(=O)C=CC2=O,14.1 µM (inactive),11.2 µM (inactive),5.65 µM (inactive),5.31 µM (inactive),4.58 µM (inactive),5.32 µM (inactive),1.89 µM (inactive),17.3 µM (inactive),14.4 µM (inactive),17.7 µM (inactive),34.2 µM (inactive),18.1 µM (inactive),16.2 µM (inactive),5.4 µM (inactive),16 µM (inactive),18.2 µM (inactive),15.1 µM (inactive),13.8 µM (inactive),16.8 µM (inactive),12.8 µM (inactive)
CCCc1cn2c(/C=N/N=C(N)N)c(-c3c(OC)ccc(OC)c3[N+](=O)[O-])nc2s1,4.06 µM (inactive),20.4 µM (inactive),5.42 µM (inactive),8.79 µM (inactive),2.57 µM (inactive),4.69 µM (inactive),3.7 µM (inactive),14.1 µM (inactive),7.08 µM (inactive),16 µM (inactive),12.3 µM (inactive),16.7 µM (inactive),7.08 µM (inactive),20.2 µM (inactive),13.3 µM (inactive),4.84 µM (inactive),9.89 µM (inactive),8.24 µM (inactive),11.4 µM (inactive),18 µM (inactive)
O=C1O/C(=C\c2ccc(O)cc2)C(c2ccc(O)c(Cl)c2)=C1Cl,53.2 µM (inactive),35.2 µM (inactive),27.4 µM (inactive),23 µM (inactive),38.2 µM (inactive),38.1 µM (inactive),59.7 µM (inactive),39.4 µM (inactive),35.7 µM (inactive),> 100 µM (inactive),30.3 µM (inactive),31.2 µM (inactive),49.5 µM (inactive),69 µM (inactive),18.5 µM (inactive),> 100 µM (inactive),40.1 µM (inactive),32.1 µM (inactive),29.2 µM (inactive),57.7 µM (inactive)
